Experiment [1] deals with T1, FGF-R1C ECD (Homo sapiens, UniProt P11362).
T1 sequence (P11362 22-376 limits assumed): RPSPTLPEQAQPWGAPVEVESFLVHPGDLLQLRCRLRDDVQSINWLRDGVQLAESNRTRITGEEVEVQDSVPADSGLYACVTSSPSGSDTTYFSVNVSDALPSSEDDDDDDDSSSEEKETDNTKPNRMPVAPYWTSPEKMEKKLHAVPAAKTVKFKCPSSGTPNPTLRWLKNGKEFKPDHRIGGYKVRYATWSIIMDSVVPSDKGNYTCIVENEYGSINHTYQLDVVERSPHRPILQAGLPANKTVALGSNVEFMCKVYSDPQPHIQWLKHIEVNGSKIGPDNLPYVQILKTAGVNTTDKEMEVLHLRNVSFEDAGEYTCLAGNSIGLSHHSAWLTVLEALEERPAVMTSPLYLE
Description: biochemical. It is filed as binding. Set-up: DNA constructs for the extracellular domain (ECD) of human FGF-; HPC4 (C); made in house; host or cells: HEK 293-6E. The essentials:
(§1)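 BLI, streptavidin sensors loaded with biotinylated receptor ECD. Single-point: ~1 μM crude peptide, PBS pH7.4/0.05% Tween-20/0.01% BSA; association then dissociation in buffer. KD corrected for UPLC-CAD-determined concentration.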

The target of experiment [2] is T2, FGF-R3C ECD (Homo sapiens, UniProt P22607).
T2 sequence (P22607 23-375 limits assumed): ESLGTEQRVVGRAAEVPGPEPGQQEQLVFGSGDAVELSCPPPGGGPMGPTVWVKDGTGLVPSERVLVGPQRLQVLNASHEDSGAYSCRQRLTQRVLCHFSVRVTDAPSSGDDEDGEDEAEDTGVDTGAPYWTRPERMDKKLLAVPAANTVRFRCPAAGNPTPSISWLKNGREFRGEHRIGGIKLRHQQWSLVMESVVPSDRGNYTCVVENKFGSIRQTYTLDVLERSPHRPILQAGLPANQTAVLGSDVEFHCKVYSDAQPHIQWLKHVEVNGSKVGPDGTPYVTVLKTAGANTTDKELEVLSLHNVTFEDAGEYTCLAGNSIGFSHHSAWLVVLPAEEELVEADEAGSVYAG
Nature of the experiment: biochemical. The class given is binding. On the set-up: DNA constructs for the extracellular domain (ECD) of human FGF-; HPC4 (C); made in house; host or cells: HEK 293-6E. The method, boiled down:
as §1

Experiment [3] addresses T3, FGF-R4 ECD (Homo sapiens, UniProt P22455).
T3 construct: DNA constructs for the extracellular domain (ECD) of human FGF-; HPC4 (C); made in house; host or cells: HEK 293-6E
T3 sequence (P22455 22-369 limits assumed): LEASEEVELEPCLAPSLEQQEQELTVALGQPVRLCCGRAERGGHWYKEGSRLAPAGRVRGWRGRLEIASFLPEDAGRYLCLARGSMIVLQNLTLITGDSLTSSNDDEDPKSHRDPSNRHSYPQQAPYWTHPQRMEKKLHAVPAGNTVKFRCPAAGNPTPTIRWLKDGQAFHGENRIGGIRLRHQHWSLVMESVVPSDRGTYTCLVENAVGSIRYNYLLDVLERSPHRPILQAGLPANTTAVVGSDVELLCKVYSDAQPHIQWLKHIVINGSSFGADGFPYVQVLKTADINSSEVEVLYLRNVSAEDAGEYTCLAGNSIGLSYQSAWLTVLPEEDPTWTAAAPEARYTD
Nature of the experiment: single concentration BLI of crude peptides. The following applies: read-out: KD (4). The class given is binding. The essentials: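 Biotinylated FGF-R ECD on streptavidin biosensors was dipped into ~1 μM crude peptide in PBS pH7.4 with 0.05% Tween-20 and 0.01% BSA for association, then into buffer for dissociation, and followed by BLI. Fitted KD values were adjusted for peptide concentration measured by UPLC-CAD.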

Experiment [4] deals with T3, FGF-R4 ECD. Nature of the experiment: multi-concentration BLI of purified peptides. The class given is binding. On the procedure: (§2) KD affinity binding measurements were obtained by biolayer interferometry (BLI) instruments (Fortebio Octet HTX, or Sartorius Octet RH16 using either 8 or 16 channel mode.
(§3) For single concentration binding experiments, 50 μM peptide stocks in folding buffer were diluted 1:50 in mRNA display selection buffer (PBS pH7.4 supplemented with 0.05% Tween-20 and 0.01% BSA) in either a 96 well black plate, or a 384 well tilted bottom microplate (ForteBio). Biotinylated FGF-R protein was loaded onto Streptavidin-functionalised biosensors (ForteBio) and immersed into ~1 μM peptide to obtain association kinetics curves. Dissociation kinetics curves were obtained by subsequent immersion of ligand-associated loaded sensors into a 1:50 dilution of folding buffer in mRNA display selection buffer. Fitted KD data was adjusted for concentration as determined by UPLC-CAD.
(§4) For accurate multi-concentration KD determination, dilution series of each peptide were made, and association and dissociation kinetics curves were obtained as above for each concentration to fit a multi-point KD binding model. Data collection and analysis was performed using the Octet Instrument Control […]
(§5) concentration assay kinetics curves shown in supplementary Figure S 19-24.

For experiment [5], the target named is T1, FGF-R1C ECD. Nature of the experiment: biochemical. As to the method:
as §2, §3, §4, §5

The target of experiment [6] is T2, FGF-R3C ECD. Description: biochemical. On the procedure: as §2, §3, §4, §5
The mark [7] stands for this setting: crude T18 selection 1 (1:1:1) peptides, single concentration BLI (Table S4).
Where [8] appears, read: purified trimer-18 library peptides.

Read-outs that look alike come from different tables or passages of the source.

The source of these data is PMC10763615, “Identification and engineering of potent cyclic peptides with selective or promiscuous binding through biochemical profiling and bioinformatic data analysis” (RSC Chemical Biology, 2023).

Take `CSCC[C@H](NC(C)=O)C(=O)N[C@H]1CSSC[C@@H](C(=O)NCC(=O)N[C@@H](CO)C(=O)NCC(=O)N[C@@H](CO)C(=O)N[C@@H](CC(=O)O)C(=O)N[C@@H](Cc2ccc(O)cc2)C(=O)N[C@@H](CCCCN)C(=O)N[C@@H](CC(=O)O)C(=O)N[C@@H](CC(=O)O)C(=O)N[C@@H](CC(=O)O)C(=O)N[C@@H](CC(=O)O)C(=O)N[C@@H](CCCCN)C(N)=O)NC(=O)[C@H](CCCNC(=N)N)NC(=O)[C@H](CC(C)C)NC(=O)[C@H](CCCCN)NC(=O)[C@H]([C@@H](C)O)NC(=O)[C@H](C(C)C)NC(=O)[C@H](CCCCN)NC(=O)[C@H](Cc2ccc(O)cc2)NC(=O)[C@H](Cc2c[nH]c3ccccc23)NC(=O)[C@H]([C@@H](C)O)NC(=O)[C@H](C(C)C)NC1=O` [4.4]: the Kd at FGF-R1C ECD [1] is greater than 10000 nM; on FGF-R3C ECD [2] it was greater than 10000 nM; on FGF-R4 ECD [3] (crude NNK peptides, single concentration BLI (Table S3)), 57 nM; on FGF-R4 ECD [4] (purified NNK library peptides), greater than 1000 nM; on FGF-R1C ECD [5], greater than 1000 nM; at FGF-R3C ECD [6] it was greater than 1000 nM.

On to `CSCC[C@H](NC(C)=O)C(=O)N[C@H]1CSSC[C@@H](C(=O)NCC(=O)N[C@@H](CO)C(=O)NCC(=O)N[C@@H](CO)C(=O)N[C@@H](CC(=O)O)C(=O)N[C@@H](Cc2ccc(O)cc2)C(=O)N[C@@H](CCCCN)C(=O)N[C@@H](CC(=O)O)C(=O)N[C@@H](CC(=O)O)C(=O)N[C@@H](CC(=O)O)C(=O)N[C@@H](CC(=O)O)C(=O)N[C@@H](CCCCN)C(N)=O)NC(=O)[C@H](C)NC(=O)[C@H](Cc2c[nH]c3ccccc23)NC(=O)[C@H](Cc2ccc(O)cc2)NC(=O)[C@H](CCCNC(=N)N)NC(=O)[C@H](Cc2ccc(O)cc2)NC(=O)[C@H](CO)NC(=O)[C@H](Cc2ccc(O)cc2)NC(=O)[C@H](Cc2ccccc2)NC(=O)[C@H](CC(=O)O)NC(=O)[C@H](CC(=O)O)NC(=O)[C@H](CC(C)C)NC(=O)[C@H](Cc2ccc(O)cc2)NC1=O` [4.16], for which the Kd on FGF-R1C ECD [1] is 54 nM; on FGF-R3C ECD [2], greater than 10000 nM; on FGF-R4 ECD [3] (setting [7]), greater than 10000 nM; on FGF-R4 ECD [4] (setting [8]), greater than 1000 nM; at FGF-R1C ECD [5], 15 nM; on FGF-R3C ECD [6], 37 nM. Besides, the “R4 KD (nM)” value at FGF-R4 ECD [4] (setting [8]) is “no observable binding”.

`CSCC[C@H](NC(C)=O)C(=O)N[C@H]1CSSC[C@@H](C(=O)NCC(=O)N[C@@H](CO)C(=O)NCC(=O)N[C@@H](CO)C(=O)N[C@@H](CC(=O)O)C(=O)N[C@@H](Cc2ccc(O)cc2)C(=O)N[C@@H](CCCCN)C(=O)N[C@@H](CC(=O)O)C(=O)N[C@@H](CC(=O)O)C(=O)N[C@@H](CC(=O)O)C(=O)N[C@@H](CC(=O)O)C(=O)N[C@@H](CCCCN)C(N)=O)NC(=O)[C@H]([C@@H](C)O)NC(=O)[C@H](C(C)C)NC(=O)[C@H](CC(C)C)NC(=O)[C@H](CC(C)C)NC(=O)[C@H](Cc2c[nH]c3ccccc23)NC(=O)[C@H](Cc2ccc(O)cc2)NC(=O)[C@H](CC(C)C)NC(=O)[C@H](C(C)C)NC(=O)[C@H](CCC(=O)O)NC(=O)[C@H](CCCNC(=N)N)NC(=O)[C@H](CCC(=O)O)NC1=O` [4.15]: the Kd on FGF-R1C ECD [1] is 48 nM; at FGF-R3C ECD [2], greater than 10000 nM; at FGF-R4 ECD [3] (setting [7]) it was 128 nM; on FGF-R4 ECD [4] (setting [8]), 378 nM; on FGF-R1C ECD [5], greater than 1000 nM; at FGF-R3C ECD [6] it was greater than 1000 nM.

In the case of `CC[C@H](C)[C@@H]1NC(=O)[C@H](CCCCN)NC(=O)[C@H](CO)NC(=O)[C@H](CC(N)=O)NC(=O)[C@@H]2CCCN2C(=O)[C@@H]2CCCN2C(=O)[C@H](CCCNC(=N)N)NC(=O)[C@H](Cc2c[nH]cn2)NC(=O)[C@H](Cc2ccc(O)cc2)NC(=O)[C@@H](NC(=O)[C@H](CCSC)NC(C)=O)CSSC[C@@H](C(=O)NCC(=O)N[C@@H](CO)C(=O)NCC(=O)N[C@@H](CO)C(=O)N[C@@H](CC(=O)O)C(=O)N[C@@H](Cc2ccc(O)cc2)C(=O)N[C@@H](CCCCN)C(=O)N[C@@H](CC(=O)O)C(=O)N[C@@H](CC(=O)O)C(=O)N[C@@H](CC(=O)O)C(=O)N[C@@H](CC(=O)O)C(=O)N[C@@H](CCCCN)C(N)=O)NC(=O)[C@H](CCCCN)NC(=O)[C@H](CCCNC(=N)N)NC(=O)[C@H](Cc2c[nH]c3ccccc23)NC1=O` [4.14], the Kd at FGF-R1C ECD [1] was greater than 10000 nM; at FGF-R3C ECD [2] it was greater than 10000 nM; on FGF-R4 ECD [3] (setting [7]), 214 nM; at FGF-R4 ECD [4] (setting [8]), 524 nM; on FGF-R1C ECD [5], greater than 1000 nM; on FGF-R3C ECD [6] it was greater than 1000 nM.

`CSCC[C@H](NC(C)=O)C(=O)N[C@H]1CSSC[C@@H](C(=O)NCC(=O)N[C@@H](CO)C(=O)NCC(=O)N[C@@H](CO)C(=O)N[C@@H](CC(=O)O)C(=O)N[C@@H](Cc2ccc(O)cc2)C(=O)N[C@@H](CCCCN)C(=O)N[C@@H](CC(=O)O)C(=O)N[C@@H](CC(=O)O)C(=O)N[C@@H](CC(=O)O)C(=O)N[C@@H](CC(=O)O)C(=O)N[C@@H](CCCCN)C(N)=O)NC(=O)[C@H](CCCNC(=N)N)NC(=O)[C@H](CCCNC(=N)N)NC(=O)[C@H](Cc2c[nH]cn2)NC(=O)[C@H](CO)NC(=O)[C@H](CC(C)C)NC(=O)[C@H](CC(C)C)NC(=O)[C@H](Cc2ccc(O)cc2)NC(=O)[C@H](Cc2ccc(O)cc2)NC(=O)[C@H](Cc2ccc(O)cc2)NC(=O)[C@H](CC(C)C)NC(=O)[C@H](Cc2c[nH]cn2)NC(=O)[C@H](CCC(=O)O)NC1=O` [4.23]: the equilibrium dissociation constant (Kd) at FGF-R4 ECD [4] (setting [8]) is 3 nM; on FGF-R1C ECD [5] it was greater than 1000 nM; at FGF-R3C ECD [6], greater than 1000 nM.

For `CSCC[C@H](NC(C)=O)C(=O)N[C@H]1CSSC[C@@H](C(=O)NCC(=O)N[C@@H](CO)C(=O)NCC(=O)N[C@@H](CO)C(=O)N[C@@H](CC(=O)O)C(=O)N[C@@H](Cc2ccc(O)cc2)C(=O)N[C@@H](CCCCN)C(=O)N[C@@H](CC(=O)O)C(=O)N[C@@H](CC(=O)O)C(=O)N[C@@H](CC(=O)O)C(=O)N[C@@H](CC(=O)O)C(=O)N[C@@H](CCCCN)C(N)=O)NC(=O)[C@H](CC(=O)O)NC(=O)[C@H](CCCCN)NC(=O)[C@H](C(C)C)NC(=O)[C@H](Cc2c[nH]c3ccccc23)NC(=O)[C@H](Cc2ccccc2)NC(=O)[C@H](C(C)C)NC(=O)[C@H](Cc2c[nH]cn2)NC(=O)[C@H](CC(C)C)NC(=O)[C@H](CCCCN)NC(=O)[C@H](CCCCN)NC(=O)[C@H](Cc2c[nH]c3ccccc23)NC(=O)[C@H](Cc2ccccc2)NC1=O` [4.22], the Kd on FGF-R4 ECD [4] (setting [8]) was less than 1 nM; at FGF-R1C ECD [5], 2 nM; at FGF-R3C ECD [6], 12 nM. On FGF-R4 ECD [4] (setting [8]), the “R4 KD (nM)” value is recorded as “sub-nanomolar”.

Broadly, the Kd is the constant that tells how readily two partners part at equilibrium.
